Results reported in USRE44971E1, “Method for selection of transformed cells” (priority 2006, dated 2014).

Assays:
[1] = tested on: non-transgenic soybean plants; experiment: Greenhouse post-V3 spray of auxin-like herbicides, visual injury, non-transgenic line; format: in vivo
Procedure: (§1) An analysis was carried out to determine whether soybean plants having DMO-encoding polynucleotide could deactivate other auxin-like herbicides in addition to dicamba. This was carried out by applying various concentrations of commercially available formulations of other auxin-like herbicides such as 2,4-D (Helena, Collierville, Tenn.), MCPA (Agriliance, St. Paul, Minn.), triclopyr (GARLON 3A; Dow Elanco, Indianapolis, Ind.), clopyralid (STINGER; Dow Elanco, Indianapolis, Ind.), picloram (TORDON 22K; Dow Elanco, Indianapolis, Ind.), or Banvel or Clarity (BASF, Raleigh, N.C.) to DMO containing plant tissues or plants.
(§2) Transgenic soybean plants were obtained by Agrobacterium-mediated transformation of soybean explants with a DMO-encoding polynucleotide as described above for the events designated Events 1-4. A non-transgenic line was used as a control. Non-transgenic and transgenic soybean seeds were planted into 3,5-inch square plastic pots containing Redi-earth™ (Scotts-Sierra Horticultural Products Co., Marysville, Ohio). The pots were placed on capillary matting in 35 inch×60 inch fiberglass watering trays for overhead and/or sub-irrigation for the duration of the test period so as to maintain optimum soil moisture for plant growth. The pots were fertilized with Osmocote (14-14-14 slow release; Scotts-Sierra Horticultural Products Co., Marysville, Ohio) at the rate of 100 gm/cu.ft. to sustain plant growth for the duration of greenhouse trials. The plants were grown in greenhouses at 27°/21° C. day/night temperature, with relative humidity between 25%-75% to simulate warm season growing conditions of late spring. A 14 h minimum photoperiod was provided with supplemental light at about 600 μE as needed.
(§3) All herbicide applications were made with the track sprayer using a Teejet 9501E flat fan nozzle (Spraying Systems Co, Wheaton, Ill.) with air pressure set at a minimum of 24 psi (165 kpa). The spray nozzle was kept at a height of about 16 inches above the top of plant material for spraying. The spray volume was 10 gallons per acre or 93 liters per hectare. Applications were made when plants had reached V-3 stage.
(§4) All treated plants in greenhouse trials were visually assessed at about 4, 14, 18, and 21 days after treatment (DAT) for injury on a scale of 0 to 100 percent relative to untreated control plants, with zero representing “no” injury and 100% representing “complete” injury or death. Data were collected using a palm top computer and analyzed using standard statistical methods.

[2] = tested on: transgenic soybean plants with DMO-encoding polynucleotide, Event 1; experiment: Greenhouse post-V3 spray of auxin-like herbicides, visual injury, transgenic Event 1; format: in vivo
Procedure: as §1, §2, §3, §4

[3] = tested on: transgenic soybean plants with DMO-encoding polynucleotide, Event 2; experiment: Greenhouse post-V3 spray of auxin-like herbicides, visual injury, transgenic Event 2; format: in vivo
Procedure: as §1, §2, §3, §4

[4] = tested on: transgenic soybean plants with DMO-encoding polynucleotide, Event 3; experiment: Greenhouse post-V3 spray of auxin-like herbicides, visual injury, transgenic Event 3; format: in vivo
Procedure: as §1, §2, §3, §4

[5] = tested on: transgenic soybean plants with DMO-encoding polynucleotide, Event 4; experiment: Greenhouse post-V3 spray of auxin-like herbicides, visual injury, transgenic Event 4; format: in vivo
Procedure: as §1, §2, §3, §4

[6] = tested on: transgenic soybean plants having DMO-encoding polynucleotide; experiment: Greenhouse injury trial, overall statements for transgenic soybean; format: in vivo; conditions: for assessment of application rate: 280 g ae/ha, transgenic soybean; for tolerance of transgenic soybean relative to the non-transgenic line: greenhouse trial, post-V3 application
Procedure: as §1, §2, §3, §4

[7] = tested on: soybean explants inoculated with Agrobacterium harboring pMON73691 (DMO and GFP genes); experiment: Selection of pMON73691-inoculated soybean explants with 2,4-D or dicamba in liquid medium, GFP+ buds; format: cell-based; conditions: for # Explants w/GFP + buds/young shoots at 48DAI: 375 explants inoculated, pMON73691
Procedure: Freshly isolated soybean explants (mature embryo axes without cotyledons) were inoculated with Agrobacterium strain ABI harboring pMON73691 (containing DMO and GFP genes). After 3-d co-culture with Agrobacterium at 23° C. and a photoperiod of 16-h light and 8-h dark, the explants were cultured in liquid delay medium which contained modified woody plant medium supplemented with 5 mg/l BAP, 200 mg/l carbenicillin, 200 mg/l cefotaxime and 100 mg/l ticarcillin. The explants were in the delay medium for 4 days. They were then transferred to liquid selection medium in PLANTCONs. The selection medium was the same as the delay medium except of addition of various levels of 2,4-D (0.01, 0.1, 1.0 or 2.0 mg/L) or 0.01 mg/L dicamba as shown in Table 9 below. Each PLANTCON contained 60 ml of the selection medium and one piece of foam sponge with 5 slits. Twenty-five explants were evenly inserted into the slits. The cultures were maintained at 28° C. and a photoperiod of 16-h light and 8-h dark, and were examined periodically under a […] equipped for detecting GFP expressing tissues.

Molecule	% injury relative to un-treated controls ([1]; 280 g ae/ha, 14 DAT) [%]	% injury relative to un-treated controls ([1]; 561 g ae/ha, 14 DAT) [%]	% injury relative to un-treated controls ([1]; 1120 g ae/ha, 14 DAT) [%]	% injury relative to un-treated controls ([2]; 280 g ae/ha, 14 DAT) [%]	% injury relative to un-treated controls ([2]; 561 g ae/ha, 14 DAT) [%]	% injury relative to un-treated controls ([2]; 1120 g ae/ha, 14 DAT) [%]	% injury relative to un-treated controls ([3]; 280 g ae/ha, 14 DAT) [%]	% injury relative to un-treated controls ([3]; 561 g ae/ha, 14 DAT) [%]	% injury relative to un-treated controls ([3]; 1120 g ae/ha, 14 DAT) [%]	% injury relative to un-treated controls ([4]; 280 g ae/ha, 14 DAT) [%]	% injury relative to un-treated controls ([4]; 561 g ae/ha, 14 DAT) [%]	% injury relative to un-treated controls ([4]; 1120 g ae/ha, 14 DAT) [%]	% injury relative to un-treated controls ([5]; 280 g ae/ha, 14 DAT) [%]	% injury relative to un-treated controls ([5]; 561 g ae/ha, 14 DAT) [%]	% injury relative to un-treated controls ([5]; 1120 g ae/ha, 14 DAT) [%]	assessment of application rate [6]	% injury relative to un-treated controls ([1]; 280 g ae/ha, 21 DAT) [%]	% injury relative to un-treated controls ([1]; 561 g ae/ha, 21 DAT) [%]	% injury relative to un-treated controls ([1]; 1120 g ae/ha, 21 DAT) [%]	% injury relative to un-treated controls ([2]; 280 g ae/ha, 21 DAT) [%]	further results
Nc1c(Cl)c(Cl)nc(C(=O)O)c1Cl [Picloram, 4-amino-3,5,6-trichloro-2-pyridinecarboxylic acid]	99.3	100.0	100.0	99.7	100.0	100.0	99.3	100.0	100.0	99.3	99.7	100.0	99.3	100.0	100.0	too stringent	–	–	–	–	–
O=C(O)c1nc(Cl)ccc1Cl [Clopyralid, 3,6-dichloro-2-pyridinecarboxylic acid]	99.3	100.0	100.0	99.2	100.0	100.0	98.2	99.7	100.0	99.3	100.0	100.0	99.7	100.0	100.0	too stringent	–	–	–	–	–
(2,4,5-trichlorophenoxy)acetic acid [Triclopyr]	86.7	97.3	98.7	88.3	95.7	99.3	86.7	98.7	99.3	86.7	94.0	96.3	90.8	98.0	99.2	too stringent	–	–	–	–	–
O=C(O)COc1ccc(Cl)cc1Cl [2,4-D, (2,4-dichlorophenoxy)acetic acid]	–	–	–	–	–	–	–	–	–	–	–	–	–	–	–	–	86.8	100.0	100.0	58.3	% injury relative to un-treated controls ([2]; 561 g ae/ha, 21 DAT): 75.0%; % injury relative to un-treated controls ([2]; 1120 g ae/ha, 21 DAT): 100.0%; % injury relative to un-treated controls ([3]; 280 g ae/ha, 21 DAT): 64.2%; % injury relative to un-treated controls ([3]; 561 g ae/ha, 21 DAT): 94.7%; % injury relative to un-treated controls ([3]; 1120 g ae/ha, 21 DAT): 100.0%; % injury relative to un-treated controls ([4]; 280 g ae/ha, 21 DAT): 40.0%; % injury relative to un-treated controls ([4]; 561 g ae/ha, 21 DAT): 85.0%; % injury relative to un-treated controls ([4]; 1120 g ae/ha, 21 DAT): 100.0%; % injury relative to un-treated controls ([5]; 280 g ae/ha, 21 DAT): 45.8%; % injury relative to un-treated controls ([5]; 561 g ae/ha, 21 DAT): 84.2%; % injury relative to un-treated controls ([5]; 1120 g ae/ha, 21 DAT): 100.0%; explant response observed ([7]; 0.01 or 0.1 mg/L in selection medium): extensive shoot growth; explant response observed ([7]; 1 or 2 mg/L in selection medium): Extensive callus development; # Explants w/GFP + buds/young shoots at 48DAI ([7]; selective agent 0.01 mg/L): 33; # Explants w/GFP + buds/young shoots at 48DAI ([7]; selective agent 0.1 mg/L): 19; # Explants w/GFP + buds/young shoots at 48DAI ([7]; selective agent 1 mg/L): 4; # Explants w/GFP + buds/young shoots at 48DAI ([7]; selective agent 2 mg/L): 0; tolerance of transgenic soybean relative to the non-transgenic line [6]: tolerance
Cc1cc(Cl)ccc1OCC(=O)O [MCPA, (4-chloro-2-methylphenoxy)acetic acid]	–	–	–	–	–	–	–	–	–	–	–	–	–	–	–	–	93.0	98.3	100.0	72.5	% injury relative to un-treated controls ([2]; 561 g ae/ha, 21 DAT): 99.3%; % injury relative to un-treated controls ([2]; 1120 g ae/ha, 21 DAT): 100.0%; % injury relative to un-treated controls ([3]; 280 g ae/ha, 21 DAT): 55.0%; % injury relative to un-treated controls ([3]; 561 g ae/ha, 21 DAT): 95.0%; % injury relative to un-treated controls ([3]; 1120 g ae/ha, 21 DAT): 99.7%; % injury relative to un-treated controls ([4]; 280 g ae/ha, 21 DAT): 55.0%; % injury relative to un-treated controls ([4]; 561 g ae/ha, 21 DAT): 95.8%; % injury relative to un-treated controls ([4]; 1120 g ae/ha, 21 DAT): 100.0%; % injury relative to un-treated controls ([5]; 280 g ae/ha, 21 DAT): 88.3%; % injury relative to un-treated controls ([5]; 561 g ae/ha, 21 DAT): 98.8%; % injury relative to un-treated controls ([5]; 1120 g ae/ha, 21 DAT): 100.0%; tolerance of transgenic soybean relative to the non-transgenic line [6]: tolerance
